Among the data in patent publication US7329678B2, “Chemical compounds” (SmithKline Beecham Corporation, priority 2003, dated 2008) are IC50 values, retold here.

Counter-ions that a name gives are not always drawn. Bounds are passed on as bounds.

One may read the IC50 as the midpoint of a concentration-inhibition curve. Low readings indicate greater potency, high ones weaker potency.

For the assay, the target named is T1, Serum Glucocorticoid-regulated Kinase-1 (SGK-1) (Homo sapiens, UniProt O00141, S422D).
T1 construct: a truncated form of the human enzyme that included amino acids 61-431; 6xHis (N); made in house
T1 sequence (O00141 61-431 S422D): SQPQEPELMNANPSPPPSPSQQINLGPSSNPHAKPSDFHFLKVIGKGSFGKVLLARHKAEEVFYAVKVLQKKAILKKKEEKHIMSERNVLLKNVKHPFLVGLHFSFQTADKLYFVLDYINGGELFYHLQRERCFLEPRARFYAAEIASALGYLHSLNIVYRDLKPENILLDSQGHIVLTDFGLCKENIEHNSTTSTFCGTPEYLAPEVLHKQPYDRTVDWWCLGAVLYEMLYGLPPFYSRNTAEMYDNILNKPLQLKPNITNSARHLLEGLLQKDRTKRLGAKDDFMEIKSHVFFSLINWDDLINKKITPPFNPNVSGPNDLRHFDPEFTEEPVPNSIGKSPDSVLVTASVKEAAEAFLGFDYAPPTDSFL
The assay is described as follows: SGK-1 Enzyme Assay (SGK1e), substrate phosphorylation, scintillation proximity. As to conditions: truncated human SGK-1 (aa 61-431, S422D), 10 μM ATP, Crosstide substrate. It is filed as biochemical. On the procedure: SGK-1 Enzyme Assay (SGK1e):
Compounds of the present invention were tested for Serum Glucocorticoid-regulated Kinase-1 (SGK-1) protein serine/threonine kinase inhibitory activity in substrate phosphorylation assays using enzyme purified from a baculovirus expression vector system. The recombinant baculovirus was made to express the intracellular domain of SGK-1 (GenBank accession number AAD41091). The virus expressed a truncated form of the human enzyme that included amino acids 61-431. Serine 422 was replaced with Aspartic acid to activate the enzyme, and 6 Histidine residues were added at the amino terminus to facilitate purification. The protein was purified using Ni-NTA agarose affinity chromatography. The peptide substrate was an N-terminal biotinylated synthetic peptide named Crosstide (biotin-Ahx-GRPRTSSFAEG-OH), corresponding to the sequence in GSK3 surrounding the serine phosphorylated by MAPKAP Kinase-1/Rsk and p70 S6 Kinase.
The method measures the ability of the isolated enzyme to catalyze the transfer of the γ-phosphate from ATP onto serine/threonine residues in the biotinylated Crosstide. Reactions were performed in 96-well polystyrene round-bottom plates in a final volume of 30 μL. Reaction mixtures contained 62.5 mM HEPES (pH 7.4), 10 mM MgCl2, 0.1 mM EDTA, 0.0024% TWEEN-20, and 1 mM DTT (added fresh daily), 10 μM ATP, 0.2 μCi [[ν-^33P] ATP per reaction, 4 μM Crosstide peptide substrate, and 1 nM SGK1 enzyme. Reactions were initiated by adding the indicated enzyme. The reaction was allowed to proceed for 2 hours, then terminated by the addition of 50 mM EDTA and quantified using a scintillation proximity assay procedure as described (McDonald, O. B., Antonsson, B., Arkinstal, S., Marshall, C. J., and Wood, E. R. (1999) Analytical Biochemistry, 268, 318-329).
Compounds under analysis were dissolved in Me2SO to 1 mM and serially diluted 1 to 3 with Me2SO through eleven columns of a 96 well plate. 1 μL of each concentration was transferred to the corresponding well of the assay plate. This created a final compound concentration range from 0.56 nM to 33.3 μM.
The data for dose responses were plotted as % Control calculated with the data reduction formula 100*(U1−C2)/(C1−C2) versus concentration of compound and fitted to the curve described by: y=((Vmax*x)/(K+x)) where Vmax is the upper asymptote and K is the IC50.
For orientation: In a scintillation proximity assay essentially only radioactivity close to the scintillant gives light.

For `Nc1ncc(-c2ccccc2)cc1-c1nc2ccccc2[nH]1` [Example 1, 3-(1H-benzimidazol-2-yl)-5-phenylpyridin-2-amine hydrochloride], the IC50 was under 1000 nM.

`Nc1ncc(-c2ccccc2)cc1-c1nc2ccc(S(N)(=O)=O)cc2[nH]1` [Example 4, 2-(2-amino-5-phenylpyridin-3-yl)-1H-benzimidazole-6-sulfonamide hydrochloride] showed an IC50 of under 1000 nM.

With `COC(=O)c1ccc2nc(-c3cc(-c4cccc(OC)c4)cnc3N)[nH]c2c1` [Example 7, Methyl 2-[2-amino-5-(3-methoxyphenyl)pyridin-3-yl]-1H-benzimidazole-6-carboxylate hydrochloride], the IC50 is under 1000 nM.

In turn, `COc1cccc(-c2cnc(N)c(-c3nc4cc(Cl)c(F)cc4[nH]3)c2)c1` [Example 11, 3-(5-chloro-6-fluoro-1H-benzimidazol-2-yl)-5-(3-methoxyphenyl)pyridin-2-amine hydrochloride] had an IC50 of under 1000 nM.

Compound `Nc1ncc(-c2ccc(F)cc2)cc1-c1nc2ccc(S(N)(=O)=O)cc2[nH]1` [Example 14, 2-[2-amino-5-(4-fluorophenyl)pyridin-3-yl]-1H-benzimidazole-6-sulfonamide] displayed an IC50 of under 1000 nM.

`Cc1cccc2[nH]c(-c3cc(-c4ccc(F)cc4)cnc3N)nc12` [Example 17, 5-(4-fluorophenyl)-3-(4-methyl-1H-benzimidazol-2-yl)pyridin-2-amine] registered an IC50 of under 1000 nM.
